Experimental data reported in article PMC9365693 (Nature, 2022).
Ends that are not written are not given here.

What was measured:
Staphylococcus simulans [1] = assay: Sytox green membrane damage assay, S. simulans; assay type: cell-based; conditions: Sytox green, Gram-positive bacteria, 20 °C, pH 7.2, 2 min before and 6 min after antibiotic; triplicates
Experimental: (§1) The bacterial cultures were grown overnight at 30 °C in TSB media for S. simulans and at 37 °C in LB medium for Bacillus subtilis. Secondary cultures were grown for 3 h until OD600 = 0.5 was reached. The bacterial cells were then centrifuged at 1,500g for 10 min at 4 °C and washed twice with 10 ml of buffer (10 mM Tris, 100 mM NaCl, 1 mM MgCl2 and 0.5% glucose, pH 7.2). The bacterial cells were resuspended to an OD600 = 10 in the buffer and used for the experiment. […] For the assay, 1 μl of the bacterial suspension was added to 1 ml of buffer. For the ion leakage assays, 1 μl of the DiSC-2 probe from a 1 mM stock was added to the cuvette and the fluorescence was measured between a wavelength of 650 nm and 670 nm (bandwidth of […]) for 2 min before the addition of the antibiotic and 6 min after. For the Sytox green leakage assays, 1 μl of the Sytox green probe from a 0.25 mM stock was added to the cuvette and the fluorescence was measured between a wavelength of 500 nm and 520 nm (bandwidth of […]) for 2 min before the addition of the antibiotic and 6 min after. All experiments were performed in triplicates.

S. simulans = assay: MIC, S. simulans (given with permeabilization assay concentrations); assay type: cell-based
Staphylococcus simulans [2] = assay: DiSC membrane depolarization (ion leakage) assay, S. simulans; assay type: cell-based; conditions: DiSC-2 probe, Gram-positive bacteria (Fig. 4h and Extended Data Fig. 10b,c), 20 °C, pH 7.2, 2 min before and 6 min after antibiotic; triplicates
Experimental: as §1

B. subtilis = assay: MIC, B. subtilis (given with permeabilization assay concentrations); assay type: cell-based, Bacillus subtilis
Experimental: as §1

[3] = species not clearly assigned (S. simulans by word order)

Compound | membrane damage, Sytox green (in words) (Staphylococcus simulans [1]) | concentration stated as 10× MIC (S. simulans; [3]) | concentration stated as 1× MIC (S. simulans; [3]) | decrease in membrane potential / depolarization (in words) (Staphylococcus simulans [2]) | concentration stated as 10× MIC (B. subtilis) | concentration stated as 1× MIC (S. simulans; S. simulans)
CN[C@H](CC(C)C)C(=O)N[C@H]1C(=O)N[C@@H](CC(N)=O)C(=O)N[C@H]2C(=O)N[C@H]3C(=O)N[C@H](C(=O)N[C@H](C(=O)O)c4cc(O)cc(O)c4-c4cc3ccc4O)[C@H](O)c3ccc(c(Cl)c3)Oc3cc2cc(c3O[C@@H]2O[C@H](CO)[C@@H](O)[C@H](O)[C@H]2O[C@H]2C[C@](C)(N)[C@H](O)[C@H](C)O2)Oc2ccc(cc2Cl)[C@H]1O [vancomycin] | Such effects were again absent | 10 µM |  |  |  | 
nisin |  |  | 0.01 µM | Membrane depolarization was also observed |  | 
plectasin: lipid II binder plectasin (GFGCNGPWDEDDMQCHNHCKSIKGYKGGYCAKGGFVCKCY; ends and bridges not checked; cysteine pairing not given here; UniProt Q53I06 56-95, looked up) [reference compound] | Such effects were again absent |  |  |  | 0.2 µM | 0.5 µM
